Measurements as given in patent EP4603105A1, “PHARMACEUTICAL COMPOSITION CONTAINING CYCLIC COMPOUND HAVING SELECTIVE KRAS INHIBITORY EFFECT AGAINST HRAS AND NRAS” (CHUGAI SEIYAKU KABUSHIKI KAISHA, priority 2022, dated 2024).
Where a SMILES comes first, the peptide text is derived from it. Bridges are numbered along the chain shown (N, C = ends). [ ]: non-standard residue; d: D form. The star is where a group is joined. hPhe(3-Cl-4-CF3) = N[C@@H](CCc1ccc(C(F)(F)F)c(Cl)c1)C(=O)O; NPrPhe(4-CF3) = CCCN[C@@H](Cc1ccc(C(F)(F)F)cc1)C(=O)O; NEtPhe(4-CF3) = CCN[C@@H](Cc1ccc(C(F)(F)F)cc1)C(=O)O; hPhe(3,4-Cl2) = N[C@@H](CCc1ccc(Cl)c(Cl)c1)C(=O)O; NMeAbu(4,4,4-F3) = CN[C@@H](CC(F)(F)F)C(=O)O; NMeGly(cPent) = CN[C@H](C(=O)O)C1CCCC1; Pro(4,4-F2) = O=C(O)[C@@H]1CC(F)(F)CN1; Gly(cBu) = N[C@H](C(=O)O)C1CCC1; NMeD = CN[C@@H](CC(=O)O)C(=O)O; NMeL = CN[C@@H](CC(C)C)C(=O)O; Morpholide = C1CN(*)CCO1; NMeA = CN[C@@H](C)C(=O)O; Ac5c = NC1(C(=O)O)CCCC1; Aze = O=C(O)[C@@H]1CCN1; Ac4c = NC1(C(=O)O)CCC1; NEtG = CCNCC(=O)O; Sar = CNCC(=O)O

Columns and labels:
[1] = system: human lung cancer strain NCI-H441; format: cell-based
Summary of the method: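 Readout: […] after the ATP-based reagent. Compound: serial dilutions in dimethyl sulfoxide.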

[2] = target: GDP-bound NRAS wild-type protein (Homo sapiens, UniProt P01111); test: Binding to NRAS by surface plasmon resonance (SPR), KD and KD ratio to KRAS
Sequence of GDP-bound NRAS wild-type protein (P01111 whole entry): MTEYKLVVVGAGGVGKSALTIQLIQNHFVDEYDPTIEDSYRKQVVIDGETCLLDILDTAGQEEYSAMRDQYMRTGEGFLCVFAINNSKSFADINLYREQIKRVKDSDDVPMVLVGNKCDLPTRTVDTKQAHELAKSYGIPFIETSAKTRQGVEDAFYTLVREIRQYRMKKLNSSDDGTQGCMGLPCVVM
Summary of the method: (§1)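 GDP-bound biotin-Avi RAS captured at ~100–300 RU, 30°C, pH 7.4 HBS containing 10 µM GDP, 10 mM MgCl2, 1 mM DTT, 0.01% Tween 20 and 4% DMSO. KD by 1:1 fitting.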

HRAS wild-type protein = HRAS wild-type protein (Homo sapiens, UniProt P01112); test: Binding to HRAS by surface plasmon resonance (SPR), KD and KD ratio to KRAS
Sequence of HRAS wild-type protein (P01112 whole entry): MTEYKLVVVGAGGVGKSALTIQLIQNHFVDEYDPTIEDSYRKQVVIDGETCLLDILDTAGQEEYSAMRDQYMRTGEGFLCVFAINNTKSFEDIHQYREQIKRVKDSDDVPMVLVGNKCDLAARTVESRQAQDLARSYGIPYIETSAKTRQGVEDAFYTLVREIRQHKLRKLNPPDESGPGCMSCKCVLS
Summary of the method: as §1

[3] = ratio of the KD value with respect to GDP-bound NRAS wild-type protein to the KD value with respect to KRAS
[4] = ratio of the KD value with respect to HRAS wild-type protein to the KD value with respect to KRAS
[5] = ratio of KD for GDP-bound NRAS wild-type protein to KD for KRAS
[6] = ratio of KD for HRAS wild-type protein to KD for KRAS
[7] = ratio of KD value for GDP-bound NRAS wild-type protein to KD value for KRAS (SPR)
[8] = ratio of KD value for HRAS wild-type protein to KD value for KRAS (SPR)

| Compound | IC50 [1] [nM] | NRAS /KRAS [2, 3] | HRAS /KRAS (HRAS wild-type protein; [4]) | NRAS /KRAS [2, 5] | HRAS /KRAS (HRAS wild-type protein; [6]) | NRAS /KRAS [2, 7] | HRAS /KRAS (HRAS wild-type protein; [8]) |
| --- | --- | --- | --- | --- | --- | --- | --- |
| CCO[C@@H]1C[C@H]2C(=O)NC3(CCC3)C(=O)N(C)[C@@H](C3CCCC3)C(=O)N(C)[C@H](C(=O)N(C)C)CC(=O)N(C)[C@@H](COC)C(=O)N[C@@H]([C@@H](C)CC)C(=O)N(C)CC(=O)N(C)[C@H]3CCCCCN(C3=O)[C@@H](Cc3ccc(C(F)(F)F)cc3)C(=O)N(C)CC(=O)N[C@@H](CCc3cc(F)c(C(F)(F)F)c(F)c3)C(=O)N2C1 [PP0674] | 13.9 | B (a compound having 3 or more and less than 10 is denoted as B) | B (a compound having 3 or more and less than 10 is denoted as B) | – | – | – | – |
| CCCN1C(=O)[C@@H]2CCN2C(=O)[C@H](C)N(C)C(=O)[C@H]([C@@H](C)CC)NC(=O)[C@H](CC(F)(F)F)N(C)C(=O)C[C@@H](C(=O)N2CCOCC2)N(C)C(=O)[C@H](C2CCCC2)N(C)C(=O)C2(CCCC2)NC(=O)[C@@H]2CC(F)(F)CN2C(=O)[C@H](CCc2ccc(C(F)(F)F)c(Cl)c2)NC(=O)CN(C)C(=O)[C@@H]1Cc1ccc(C(F)(F)F)cc1 [PP0203] ([NMeAbu(4,4,4-F3)]I[NMeA][Aze][NPrPhe(4-CF3)][Sar][hPhe(3-Cl-4-CF3)][Pro(4,4-F2)][Ac5c][NMeGly(cPent)][NMeD]-Morpholide; lactam N-11) | 2.8 | – | – | C (A compound having a KD ratio of 0.1 or more and less than 3 is denoted as C) | C (A compound having a KD ratio of 0.1 or more and less than 3 is denoted as C) | – | – |
| CC[C@H](C)[C@@H]1NC(=O)[C@H](CC2CC2)N(C)C(=O)C[C@@H](C(=O)N(C)C)N(C)C(=O)[C@H](C2CCCC2)N(C)C(=O)C2(CCC2)NC(=O)[C@@H]2C[C@@H](C)CN2C(=O)[C@H](CCc2ccc(C(F)(F)F)c(OC)c2)NC(=O)CN(C)C(=O)[C@H](Cc2ccc(C)cc2)N2CC/C=C\C[C@@H](C2=O)N(C)C(=O)CN(C)C1=O [PP1863] | 88.8 | – | – | – | – | A (a compound having 10 or more and less than 20 is denoted as A) | A (a compound having 10 or more and less than 20 is denoted as A) |
| CC[C@H](C)[C@@H]1NC(=O)[C@H](CC(C)C)N(CC)C(=O)C[C@@H](C(=O)N2CCOCC2)N(C)C(=O)[C@H](C2CCCC2)N(C)C(=O)C2(CCCC2)NC(=O)[C@@H]2CCCN2C(=O)[C@H](CCc2cc(F)c(C(F)(F)F)c(F)c2)NC(=O)CN(C)C(=O)[C@H](Cc2ccc(C(F)(F)F)cc2)N2CCCCC[C@@H](C2=O)N(C)C(=O)CN(C)C1=O [PP0513] | 238 | B (a compound having 3 or more and less than 10 is denoted as B) | B (a compound having 3 or more and less than 10 is denoted as B) | – | – | – | – |
| CC[C@H](C)[C@@H]1NC(=O)[C@H](CC(C)C)N(C)C(=O)C[C@@H](C(=O)N2CCOCC2)N(C)C(=O)[C@H](C2CCCC2)N(C)C(=O)C2(CCCC2)NC(=O)[C@@H]2CCCN2C(=O)[C@H](CCc2ccc(Cl)c(Cl)c2)NC(=O)CN(C)C(=O)[C@H](Cc2ccc(C(F)(F)F)cc2)N(CC)C(=O)CN(C)C(=O)CN(C)C1=O [PP0237] ([NMeL]I[Sar][Sar][NEtPhe(4-CF3)][Sar][hPhe(3,4-Cl2)]P[Ac5c][NMeGly(cPent)][NMeD]-Morpholide; lactam N-11) | 4 | – | – | B (a compound having 3 or more and less than 10 is denoted as B) | C (A compound having a KD ratio of 0.1 or more and less than 3 is denoted as C) | – | – |
| CCC[C@H]1C(=O)N[C@@H]([C@@H](C)CC)C(=O)N(C2CC2)CC(=O)N(C)[C@H]2C/C=C\CCN(C2=O)[C@@H](Cc2ccc(C)cc2)C(=O)N(C)CC(=O)N[C@@H](CCc2ccc(C3CC3)c(OC)c2)C(=O)N2C[C@H](OCC)C[C@H]2C(=O)NC2(CC(C)(C)C2)C(=O)N(C)[C@@H](C2CCCC2)C(=O)N(C)[C@H](C(=O)N(C)C)CC(=O)N1C [PP2883] | 76.2 | – | – | A (a compound having 10 or more and less than 20 is denoted as A) | A (a compound having 10 or more and less than 20 is denoted as A) | – | – |
| CCO[C@@H]1C[C@H]2C(=O)NC3(CCC3)C(=O)N(C)[C@@H](C3CCCC3)C(=O)N(C)[C@H](C(=O)N3CCOCC3)CC(=O)N(C)[C@@H](CC(C)C)C(=O)N[C@@H]([C@@H](C)CC)C(=O)N3CC[C@H]3C(=O)N(C)[C@H]3CC(C)=CCN(C3=O)[C@@H](Cc3ccc(C(F)(F)F)cc3)C(=O)N(C)CC(=O)N[C@@H](CCc3cc(F)c(C(F)(F)F)c(F)c3)C(=O)N2C1 [PP1040] | 18.7 | – | – | C (A compound having a KD ratio of 0.1 or more and less than 3 is denoted as C) | C (A compound having a KD ratio of 0.1 or more and less than 3 is denoted as C) | – | – |
| CCCN(C)C(=O)[C@@H]1CC(=O)N(C)[C@@H](COC)C(=O)N[C@@H]([C@@H](C)CC)C(=O)N(C)CC(=O)N(C)[C@H]2C/C=C\CCN(C2=O)[C@@H](Cc2ccc(C(F)(F)F)cc2)C(=O)N(C)CC(=O)N[C@@H](CCc2cc(F)c(C(F)(F)F)c(F)c2)C(=O)N2C[C@H](F)C[C@H]2C(=O)NC2(CC(C)(C)C2)C(=O)N(C)[C@@H](C2CCCC2)C(=O)N1C [PP1696] | 2.9 | – | – | – | – | AA (a compound having 20 or more is denoted as AA) | A (a compound having 10 or more and less than 20 is denoted as A) |
| CC[C@H](C)[C@@H]1NC(=O)[C@H](CC(C)C)N(C)C(=O)C[C@@H](C(=O)N2CCOCC2)N(C)C(=O)[C@H](C2CCCC2)N(C)C(=O)C(C)(C)NC(=O)[C@@H]2CCCN2C(=O)[C@H](CCc2cc(F)c(C(F)(F)F)c(F)c2)NC(=O)CN(C)C(=O)[C@H](Cc2ccc(C(F)(F)F)cc2)N2CCCCC[C@@H](C2=O)N(C)C(=O)CN(C)C1=O [PP0503] | 283 | A (a compound having 10 or more and less than 20 is denoted as A) | B (a compound having 3 or more and less than 10 is denoted as B) | – | – | – | – |
| CCCN1C(=O)CN(C)C(=O)CN(C)C(=O)[C@H]([C@@H](C)CC)NC(=O)[C@H](CC(C)C)N(C)C(=O)C[C@@H](C(=O)N2CCOCC2)NC(=O)[C@H](C2CCCC2)N(C)C(=O)C2(CCC2)NC(=O)[C@@H]2CC(F)(F)CN2C(=O)[C@H](CCc2ccc(C(F)(F)F)c(Cl)c2)NC(=O)CN(C)C(=O)[C@@H]1Cc1ccc(C(F)(F)F)cc1 [PP0322] ([NMeL]I[Sar][Sar][NPrPhe(4-CF3)][Sar][hPhe(3-Cl-4-CF3)][Pro(4,4-F2)][Ac4c][NMeGly(cPent)]D-Morpholide; lactam N-11) | 74.2 | – | – | B (a compound having 3 or more and less than 10 is denoted as B) | C (A compound having a KD ratio of 0.1 or more and less than 3 is denoted as C) | – | – |
| CCCN1C(=O)CN(C)C(=O)CN(CC)C(=O)[C@H](C2CCC2)NC(=O)[C@H](CC(C)C)N(C)C(=O)C[C@@H](C(=O)N2CCOCC2)N(C)C(=O)[C@H](C2CCCC2)N(C)C(=O)C2(CCCC2)NC(=O)[C@@H]2CCCN2C(=O)[C@H](CCc2ccc(C(F)(F)F)c(Cl)c2)NC(=O)CN(C)C(=O)[C@@H]1Cc1ccc(C(F)(F)F)cc1 [PP0292] ([NMeL][Gly(cBu)][NEtG][Sar][NPrPhe(4-CF3)][Sar][hPhe(3-Cl-4-CF3)]P[Ac5c][NMeGly(cPent)][NMeD]-Morpholide; lactam N-11) | 36.3 | – | – | B (a compound having 3 or more and less than 10 is denoted as B) | C (A compound having a KD ratio of 0.1 or more and less than 3 is denoted as C) | – | – |
| CC[C@H](C)[C@@H]1NC(=O)[C@H](CC(C)C)N(C)C(=O)C[C@@H](C(=O)N2CCOCC2)N(C)C(=O)[C@H](C2CCCC2)N(C)C(=O)C2(CCCC2)NC(=O)[C@@H]2CCCN2C(=O)[C@H](CCc2ccc(C(F)(F)F)c(Cl)c2)NC(=O)CN(C)C(=O)[C@H](Cc2ccc(C(F)(F)F)cc2)N2CCCC[C@@H](C2=O)N(C)C(=O)CN(C)C1=O [PP0318] | 2.3 | – | – | B (a compound having 3 or more and less than 10 is denoted as B) | B (a compound having 3 or more and less than 10 is denoted as B) | – | – |
| CCOC[C@H]1C(=O)N[C@@H]([C@@H](C)CC)C(=O)N2CCC[C@H]2C(=O)N(C)[C@H]2C/C=C\CCN(C2=O)[C@@H](Cc2ccc(C(F)(F)F)cc2)C(=O)N(C)CC(=O)N[C@@H](CCc2ccc(C(F)(F)F)c(OC)c2)C(=O)N2C[C@H](OCC)C[C@H]2C(=O)N(C)C2(CCC2)C(=O)N(C)[C@@H](C(CC)CC)C(=O)N(C)[C@H](C(=O)N(C)C)CC(=O)N1C [PP2319] | 9.6 | AA (a compound having 20 or more is denoted as AA) | A (a compound having 10 or more and less than 20 is denoted as A) | – | – | – | – |
| CCC[C@H]1C(=O)N[C@@H]([C@@H](C)CC)C(=O)N(C)CC(=O)N(C)[C@H]2C/C=C\CCN(C2=O)[C@@H](Cc2ccc(C(F)(F)F)cc2)C(=O)N(C)CC(=O)N[C@@H](CCc2ccc3ccn(C)c3c2)C(=O)N2C[C@H](OCC)C[C@H]2C(=O)NC2(CC(C)(C)C2)C(=O)N(C)[C@@H](C(CC)CC)C(=O)N(C)[C@H](C(=O)N(C)C)CC(=O)N1C [PP2912] | 86 | – | – | AA (a compound having 20 or more is denoted as AA) | A (a compound having 10 or more and less than 20 is denoted as A) | – | – |
